# From patent US20090137572A1, “2-substituted-4-heteroaryl-pyrimidines useful for the treatment of proliferative disorders” (priority 2004, published 2009)
# What was measured:
# Aurora A kinase = molecular target: T1, Aurora A kinase (Homo sapiens, UniProt O14965); experiment: Aurora-A (human) kinase assay (Kemptide substrate); format: biochemical; details: pIC50 is -log(IC50, M); 15 μM ATP; read-out: Kinase Inhibition pIC50 Aurora A kinase (converted)
# T1 construct: purchased
# T1 sequence (O14965 1-403): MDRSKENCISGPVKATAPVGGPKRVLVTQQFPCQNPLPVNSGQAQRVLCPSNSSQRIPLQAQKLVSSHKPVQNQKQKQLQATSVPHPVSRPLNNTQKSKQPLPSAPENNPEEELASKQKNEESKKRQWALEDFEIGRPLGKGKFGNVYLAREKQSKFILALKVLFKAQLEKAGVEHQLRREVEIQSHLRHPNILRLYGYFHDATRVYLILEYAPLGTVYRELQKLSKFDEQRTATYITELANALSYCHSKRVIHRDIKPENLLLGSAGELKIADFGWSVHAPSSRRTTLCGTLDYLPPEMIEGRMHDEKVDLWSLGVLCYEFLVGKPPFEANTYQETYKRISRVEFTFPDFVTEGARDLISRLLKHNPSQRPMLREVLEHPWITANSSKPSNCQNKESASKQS
# In short: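 Radiometric filter-binding assay: commercial aurora-A kinase (5-10 ng) with 200 μM Kemptide in MOPS/EDTA pH 7.0, started with 10 mM Mg acetate and 15 μM ATP plus [γ-33P]-ATP. Incubated 40 min at room temperature, stopped with phosphoric acid, incorporated 33P counted by scintillation.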
# CDK9/cyclin T1 = CDK9/cyclin T1 (Homo sapiens, UniProt P50750); experiment: CDK 9 assay (CTD peptide substrate); format: biochemical; details: read-out: Kinase Inhibition pIC50 CDK9-cyclin T1 (converted)
# CDK9/cyclin T1, sequence (P50750 whole entry): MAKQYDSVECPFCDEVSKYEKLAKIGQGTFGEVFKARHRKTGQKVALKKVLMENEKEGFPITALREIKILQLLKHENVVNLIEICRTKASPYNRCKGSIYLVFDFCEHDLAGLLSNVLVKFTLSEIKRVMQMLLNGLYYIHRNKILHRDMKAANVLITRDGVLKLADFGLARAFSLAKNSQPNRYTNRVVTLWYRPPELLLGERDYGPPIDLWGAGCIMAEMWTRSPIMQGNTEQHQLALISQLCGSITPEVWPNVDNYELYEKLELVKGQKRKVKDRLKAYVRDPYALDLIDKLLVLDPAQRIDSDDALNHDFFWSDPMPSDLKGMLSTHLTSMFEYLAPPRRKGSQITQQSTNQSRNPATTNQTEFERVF
# CDK9/cyclin T1, sequence (O60563 whole entry partner): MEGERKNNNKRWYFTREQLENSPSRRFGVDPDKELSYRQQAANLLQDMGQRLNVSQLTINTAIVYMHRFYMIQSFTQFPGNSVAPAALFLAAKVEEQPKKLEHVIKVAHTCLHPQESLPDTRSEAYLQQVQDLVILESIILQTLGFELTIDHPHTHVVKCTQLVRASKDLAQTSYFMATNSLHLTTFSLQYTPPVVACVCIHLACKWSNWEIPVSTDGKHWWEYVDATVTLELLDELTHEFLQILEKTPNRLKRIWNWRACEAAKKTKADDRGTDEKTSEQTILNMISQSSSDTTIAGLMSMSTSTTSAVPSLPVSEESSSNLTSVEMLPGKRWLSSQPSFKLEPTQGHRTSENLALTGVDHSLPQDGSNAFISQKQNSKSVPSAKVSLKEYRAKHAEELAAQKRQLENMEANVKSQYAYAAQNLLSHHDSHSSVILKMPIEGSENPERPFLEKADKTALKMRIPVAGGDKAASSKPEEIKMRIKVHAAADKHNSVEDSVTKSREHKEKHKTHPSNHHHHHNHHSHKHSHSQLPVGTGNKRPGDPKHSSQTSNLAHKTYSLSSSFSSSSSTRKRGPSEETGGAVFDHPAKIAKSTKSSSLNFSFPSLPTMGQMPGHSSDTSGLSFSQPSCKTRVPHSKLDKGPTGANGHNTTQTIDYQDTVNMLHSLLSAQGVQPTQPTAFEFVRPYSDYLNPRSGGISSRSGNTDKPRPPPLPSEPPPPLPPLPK
# Experimental: (§1) Kinase assays. The compounds of the invention above were investigated for their ability to inhibit the enzymatic activity of various protein kinases (Table 2). This was achieved by measurement of incorporation of radioactive phosphate from ATP into appropriate polypeptide substrates. Recombinant protein kinases and kinase complexes were produced or obtained commercially. Assays were performed using 96-well plates and appropriate assay buffers (typically 25 mM β-glycerophosphate, 20 mM MOPS, 5 mM EGTA, 1 mM DTT, 1 mM […], pH 7.4), into which were added 2-4 μg of active enzyme with appropriate substrates. The reactions were initiated by addition of Mg/ATP mix (15 mM MgCl2+100 μM ATP with 30-50 kBq per well of [γ-^32P]-ATP) and mixtures incubated as required at 30° C. Reactions were stopped on ice, followed by filtration through p81 filterplates or GF/C filterplates (Whatman Polyfiltronics, Kent, UK). After washing 3 times with 75 mM aq orthophosphoric acid, plates were dried, scintillant added and incorporated radioactivity measured in a scintillation counter (TopCount, Packard Instruments, Pangbourne, Berks, UK). Compounds for kinase assay were made up as 10 mM stocks in DMSO and diluted into 10% DMSO in assay buffer.
# (§2) CDK 7 and 9 assays. CTD peptide substrate (biotinyl-Abx-(Tyr-Ser-Pro-Thr-Ser-Pro-Ser)4-NH2; 1-2 mg/mL) and recombinant human CDK7/cyclin H, CDK9/cyclin T1, or CDK9/cyclin K (0.5-2 μg) were incubated for 45 min at 30° C. in the presence of varying amounts of test compound in 20 mM MOPS pH 7.2, 25 mM β-glycerophosphate, 5 mM EGTA, 1 mM DTT, 1 mM sodium vanadate, 15 mM MgCl2, and 100 μM ATP (containing a trace amount of ^32PγATP) in a total volume of 25 μL in a 96-well microtiter plate. The reaction was stopped by placing the plate on ice for 2 min. Avidin (50 μg) was added to each well, and the plate was incubated at room temp for 30 min. The samples were transferred to a 96-well P81 filter plate, and washed (4×200 μL per well) with 75 mM phosphoric acid. Microscint 40 scintillation liquid (50 μL) was added to each well, and the amount of ^32P incorporation for each sample was measured using a Packard Topcount microplate scintillation counter.
# CDK7/cyclin H = CDK7/cyclin H (Homo sapiens, UniProt P50613); experiment: CDK 7 assay (CTD peptide substrate); format: biochemical; details: read-out: Kinase Inhibition pIC50 CDK7-cyclin H (converted)
# CDK7/cyclin H, sequence (P50613 whole entry): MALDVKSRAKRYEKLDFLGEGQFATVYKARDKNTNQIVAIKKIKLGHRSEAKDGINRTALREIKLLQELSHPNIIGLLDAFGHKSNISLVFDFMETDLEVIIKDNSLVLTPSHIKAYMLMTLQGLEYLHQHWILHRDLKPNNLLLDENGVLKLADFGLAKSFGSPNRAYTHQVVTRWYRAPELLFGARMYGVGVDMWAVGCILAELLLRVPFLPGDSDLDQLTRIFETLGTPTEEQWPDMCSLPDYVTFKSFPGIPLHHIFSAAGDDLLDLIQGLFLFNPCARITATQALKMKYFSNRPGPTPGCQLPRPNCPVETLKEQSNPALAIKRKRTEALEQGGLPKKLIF
# CDK7/cyclin H, sequence (P51946 whole entry partner): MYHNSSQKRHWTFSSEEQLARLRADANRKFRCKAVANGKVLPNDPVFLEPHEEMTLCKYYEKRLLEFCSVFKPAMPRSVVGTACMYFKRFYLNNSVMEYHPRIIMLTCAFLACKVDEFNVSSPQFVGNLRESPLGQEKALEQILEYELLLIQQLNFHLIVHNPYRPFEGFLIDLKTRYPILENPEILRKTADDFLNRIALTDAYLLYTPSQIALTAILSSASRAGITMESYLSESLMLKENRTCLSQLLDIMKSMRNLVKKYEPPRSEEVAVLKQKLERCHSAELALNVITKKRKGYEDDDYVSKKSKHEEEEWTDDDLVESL
# Experimental: as §1, §2
# [1] = molecular target: T2, Flt3 (FMS-like tyrosine kinase-3) (Homo sapiens, UniProt P36888); experiment: Kinase assay (radioactive phosphate incorporation), Flt3; format: biochemical; details: pIC50 is -log(IC50, M), read-out: Kinase Inhibition pIC50 Flt3 (converted)
# T2 sequence (P36888 27-993): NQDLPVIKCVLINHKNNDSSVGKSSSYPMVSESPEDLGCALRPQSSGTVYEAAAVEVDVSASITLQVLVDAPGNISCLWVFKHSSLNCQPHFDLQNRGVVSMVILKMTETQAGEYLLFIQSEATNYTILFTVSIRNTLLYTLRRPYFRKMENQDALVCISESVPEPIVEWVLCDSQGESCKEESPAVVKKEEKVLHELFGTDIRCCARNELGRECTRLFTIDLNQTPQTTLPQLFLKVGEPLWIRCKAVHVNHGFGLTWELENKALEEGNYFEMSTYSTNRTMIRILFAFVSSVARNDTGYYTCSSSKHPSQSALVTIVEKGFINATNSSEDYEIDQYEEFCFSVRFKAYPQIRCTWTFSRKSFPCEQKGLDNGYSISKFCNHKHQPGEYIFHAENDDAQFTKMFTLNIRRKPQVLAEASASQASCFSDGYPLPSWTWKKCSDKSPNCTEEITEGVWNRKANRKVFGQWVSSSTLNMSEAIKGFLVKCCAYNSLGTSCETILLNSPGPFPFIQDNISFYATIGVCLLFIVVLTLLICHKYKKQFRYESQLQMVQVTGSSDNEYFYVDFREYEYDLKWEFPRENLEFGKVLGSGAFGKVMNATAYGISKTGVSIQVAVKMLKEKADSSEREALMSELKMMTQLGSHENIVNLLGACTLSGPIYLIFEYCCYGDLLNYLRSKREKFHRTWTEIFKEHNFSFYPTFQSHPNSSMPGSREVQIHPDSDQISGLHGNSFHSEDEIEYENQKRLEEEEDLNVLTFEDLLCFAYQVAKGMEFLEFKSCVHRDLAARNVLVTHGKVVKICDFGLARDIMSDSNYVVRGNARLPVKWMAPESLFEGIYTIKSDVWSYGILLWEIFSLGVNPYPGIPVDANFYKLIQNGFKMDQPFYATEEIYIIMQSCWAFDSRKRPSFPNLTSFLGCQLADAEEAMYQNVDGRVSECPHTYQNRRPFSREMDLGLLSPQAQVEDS
# Experimental: as §1
# CDK2-cycline E = CDK2-cycline E (Homo sapiens, UniProt P24941); experiment: Kinase assay (radioactive phosphate incorporation), CDK2-cyclin E; format: biochemical; details: read-out: Kinase Inhibition pIC50 CDK2-cycline E (converted)
# In short: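 Radiometric filter-binding format: recombinant kinase + substrate, pH 7.4 MOPS buffer with EGTA, DTT, vanadate; 100 μM ATP/[γ-32P]-ATP, 15 mM MgCl2; 30° C; stopped on ice, P81 or GF/C filtration, scintillation read.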
IC50 (Aurora A kinase) [nM],melting point [°C],Structure (SMILES),other results
63.1,233 to 234,"CCc1cc(-c2nc(C)c(-c3ccnc(Nc4ccc(S(=O)(=O)NCCO)cc4)n3)s2)ccn1 [Compound 102, 4-{4-[2-(2-Ethyl-pyridin-4-yl)-4-methyl-thiazol-5-yl]-pyrimidin-2-ylamino}-N-(2-hydroxy-ethyl)-benzenesulfonamide]",
63.1,224 to 225,"CCc1cc(-c2nc(C)c(-c3ccnc(Nc4ccc(CNC(C)=O)cc4)n3)s2)ccn1 [Compound 104, N-(4-{4-[2-(2-Ethyl-pyridin-4-yl)-4-methyl-thiazol-5-yl]-pyrimidin-2-ylamino}-benzyl)-acetamide]",
2510,227 to 229,"CC(=O)NCc1cccc(Nc2nccc(-c3sc(-c4ccc(C)nc4)nc3C)n2)c1 [Compound 108, N-(3-{4-[4-Methyl-2-(6-methyl-pyridin-3-yl)-thiazol-5-yl]-pyrimidin-2-ylamino}-benzyl)-acetamide]",
631,217 to 218,"CC(=O)NCc1cccc(Nc2nccc(-c3sc(-c4ncc(C(F)(F)F)cc4Cl)nc3C)n2)c1 [Compound 109, N-(3-{4-[2-(3-Chloro-5-trifluoromethyl-pyridin-2-yl)-4-methyl-thiazol-5-yl]-pyrimidin-2-ylamino}-benzyl)-acetamide]",
1000,252 to 254,"COCCNS(=O)(=O)c1ccc(Nc2nccc(-c3sc(-c4cccnc4)nc3C)n2)cc1 [Compound 110, N-(2-Methoxy-ethyl)-4-[4-(4-methyl-2-pyridin-3-yl-thiazol-5-yl)-pyrimidin-2-ylamino]-benzenesulfonamide]",
,180 to 183,"Cc1nc(NCc2ccccc2)sc1-c1ccnc(Nc2ccc(N3CCOCC3)cc2)n1 [Compound 117, [4-(2-Benzylamino-4-methyl-thiazol-5-yl)-pyrimidin-2-yl]-(4-morpholin-4-yl-phenyl)-amine]",
501,181 to 183,"CC(=O)NCc1cccc(Nc2nccc(-c3sc(NCc4ccccc4)nc3C)n2)c1 [Compound 118, N-{3-[4-(2-Benzylamino-4-methyl-thiazol-5-yl)-pyrimidin-2-ylamino]-benzyl}-acetamide]",
50.1,216 to 218,"Cc1nc(N(C)c2cc(Cl)cc(Cl)c2)sc1-c1ccnc(Nc2ccc(N3CCOCC3)cc2)n1 [Compound 123, (4-{2-[(3,5-Dichloro-phenyl)-methyl-amino]-4-methyl-thiazol-5-yl}-pyrimidin-2-yl)-(4-morpholin-4-yl-phenyl)-amine]",
200,245 to 246,"Cc1nc(N(C)c2ccc(Cl)cc2)sc1-c1ccnc(Nc2ccc(N3CCOCC3)cc2)n1 [Compound 124, (4-{2-[(4-Chloro-phenyl)-methyl-amino]-4-methyl-thiazol-5-yl}-pyrimidin-2-yl)-(4-morpholin-4-yl-phenyl)-amine]",
,230 to 231,"Cc1nc(-c2cccnc2)sc1-c1ccnc(Nc2ccc(N3CCOCC3)c(Cl)c2)n1 [Compound 127, (3-Chloro-4-morpholin-4-yl-phenyl)-[4-(4-methyl-2-pyridin-3-yl-thiazol-5-yl)-pyrimidin-2-yl]-amine]",
,> 300,"CCNc1nc(C)c(-c2ccnc(Nc3cc(Cl)c(N4CCOCC4)c(Cl)c3)n2)s1 [Compound 133, (3,5-Dichloro-4-morpholin-4-yl-phenyl)-[4-(2-ethylamino-4-methyl-thiazol-5-yl)-pyrimidin-2-yl]-amine]",
,> 300,"Cc1nc(-c2nc(C)c(-c3ccnc(Nc4cc(Cl)c(N5CCOCC5)c(Cl)c4)n3)s2)cs1 [Compound 137, (3,5-Dichloro-4-morpholin-4-yl-phenyl)-[4-(4,2′-dimethyl-[2,4′]bithiazolyl-5-yl)-pyrimidin-2-yl]-amine]",
,229 to 230,"COc1cc(Nc2nccc(-c3sc(-c4cccnc4)nc3C)n2)cc(OC)c1 [Compound 155, (3,5-Dimethoxy-phenyl)-[4-(4-methyl-2-pyridin-3-yl-thiazol-5-yl)-pyrimidin-2-yl]-amine]",
,191 to 192,"Cc1nc(NCCc2ccccc2)sc1-c1ccnc(Nc2ccc(N3CCN(Cc4ccccc4)CC3)cc2)n1 [Compound 166, [4-(4-Benzyl-piperazin-1-yl)-phenyl]-[4-(4-methyl-2-phenethylamino-thiazol-5-yl)-pyrimidin-2-yl]-amine]",
,290 to 291,"Cc1nc(Nc2ccccc2)sc1-c1ccnc(Nc2ccc(N3CCOCC3)cc2)n1 [Compound 167, [4-(4-Methyl-2-phenylamino-thiazol-5-yl)-pyrimidin-2-yl]-(4-morpholin-4-yl-phenyl)-amine]",
,191 to 194,"COc1cc(Nc2nccc(-c3sc(Nc4ccccc4)nc3C)n2)cc(OC)c1 [Compound 171, (3,5-Dimethoxy-phenyl)-[4-(4-methyl-2-phenylamino-thiazol-5-yl)-pyrimidin-2-yl]-amine]",
79.4,,"COc1cc(Nc2nccc(-c3sc(C)nc3C)n2)cc(OC)c1 [Compound 175, (3,5-Dimethoxy-phenyl)-[4-(2,4-dimethyl-thiazol-5-yl)-pyrimidin-2-yl]-amine]",IC50 (CDK9/cyclin T1): 1580 nM; IC50 (CDK7/cyclin H): 5010 nM; IC50 [1]: 39.8 nM; IC50 (CDK2-cycline E): 1260 nM
